Earlier results in patent publication US20220023314A1, “STABLE FORMULATIONS OF ANESTHETICS AND […] FORMS” (HALO SCIENCE LLC, priority 2018, published 2022).

Conditions: in vivo

## C[C@]12CC[C@@H](O)C[C@@H]1CC[C@H]1[C@@H]3CC[C@H](C(=O)CO)[C@@]3(C)CC(=O)[C@@H]12 [Alphadolone]
  potency relative to alphaxalone: half as potent
